In patent publication US6900200B2, “Tricyclic hydroxy carboxamides and derivatives thereof tocolytic oxytocin receptor antagonists” (Wyeth, priority 2001, dated 2005) one finds IC50, melting point and inhibition data, which are given here for six molecules.

Data set [1] concerns the target T1, human vasopressin V1a receptor subtype (Homo sapiens, UniProt P37288).
T1 construct: host or cells: CHO cells; pZeoSV vector for the Thibonnier line
The experiment in a line: Vasopressin binding in CHO cell membranes expressing human vasopressin V1a subtype receptors ([3H]Manning ligand radioligand binding). The note with it: for IC50: value printed in parentheses; for inhibition at 0.1 µM: @ 100 nM. An excerpt: Vasopressin Binding in Chinese Hamster Ovary Cell Membranes Expressing Human Vasopressin V1a Subtype Receptors
Chinese hamster ovary cells (CHO cells) stably transfected with the human vasopressin V1a subtype receptors were either obtained from BioSignal Inc., 1744 rue Williams, Montreal, Quebec, Canada or obtained from M. Thibonnier, Case Western Reserve University School of Medicine, Cleveland, Ohio.
A. Passaging and Amplification of Cells
CHO cells transfected with the human vasopressin V1a subtype receptors obtained from M. Thibonnier (pZeoSV vector) are allowed to grow to confluency (approx. >90%) in T-150 flasks under sterile conditions, in a cell culture medium of F-12 Nutrient Mixture (HAM) with L-glutamine (Gibco Cat. #11765-054) containing 15 mM HEPES (Gibco Cat. #15630-080), 1% antibiotic/antimycotic (add 5 mL 100×, Gibco Cat. #15240-062 per 500 mL F-12), 250 μg/mL Zeocin (add 1.25 mL of 100 mg/mL Invitrogen R-250-01 per 500 mL F-12) and 10% Fetal Bovine Serum (Qualified, heat inactivated, Gibco Cat. #16140-063). The medium is removed by aspiration and the cells are washed with 10 mL of Hank's Balanced Salt solution (Gibco Cat. #14175-095). The salt solution is removed by aspiration and the cells are trypsinized with 5 mL of trypsin-EDTA (0.05% trypsin, 0.53 mM EDTA-4Na, Gibco Cat. #25300-070) for 1 min. The trypsin is removed by aspiration and the cells dislodged by tapping. Cell Culture medium (e.g. 30 mL for 1:30 split) is immediately added and mixed well to inactivate trypsin. 1 mL of detached cells is added to new culture flasks containing fresh cell culture medium (e.g., into 25 mL per T-150 flask), and mixed gently. The cells are incubated at 37° C. in 5% CO2. The medium is changed at 3 to 4 days interval (or as appropriate). The cells grow to confluency (approx. >75%-95%) within 7-8 days. All steps are done under sterile conditions.
The cells are washed twice gently with Hank's Balanced Salt solution (e.g,. use 10 mL per T-150 flask). The excess is removed and the cells are bathed for 15-30 min. in an enzyme-free Cell Dissociation Buffer (e.g. use 8 mL Hank's Based, Gibco Cat. #13150-016 per T-150 flask) until the cells are loosened. The contents are transferred to centrifuge tubes (50 mL) kept in an ice bath. All subsequent steps are done at 4° C. The tubes are centrifuged at 300×g for 15 min (1380 rpm on SORVAL, Model RT6000D, using the rotor for 50 mL tubes). The supernatant is discarded and the cells suspended in homogenizing buffer(10 mM Tris-HCl containing 0.25 M sucrose and 1 mM EDTA, pH 7.4) ensuring that the volume of the buffer is about ten times the volume of the cell pellet. The cells are pooled into a centrifuge tube (50 mL) and homogenized with Polytron at setting 6 for 10 sec. The homogenate is transferred into a Potter-Elvjehm homogenizer and homogenized with 3 strokes. The homogenate is centrifuged at 1500×g for 10 min at 4° C. (3100 rpm using SORVAL, model RT6000D, using the rotor for 50 mL tubes). The pellet is discarded. The supernatant is centrifuged at 100,000×g for 60 min. at 4° C. (Beckman L8-80M ultracentrifuge; spin at 37,500 rpm with rotor type 70 Ti for 50 mL tubes; 38,000 rpm with type 80Ti for 15 mL tubes; or 35,800 rpm with rotor type 45Ti). The supernantant is discarded and the pellet suspended in 3 to 4 mL of Tris buffer (50 mM TRIS—HCl, pH 7.4). The protein content is estimated by the Bradford or Lowry method. The volume of the membrane suspension is adjusted with the membrane buffer (50 mM Tris-HCl containing 0.1% BSA and 0.1 mM PMSF) to give 3.0 mg/mL (or as appropriate) of protein. The membranes are aliquoted and stored at −70° C.
C. Radioligand Binding Assay […]

T1 sequence (P37288 whole entry): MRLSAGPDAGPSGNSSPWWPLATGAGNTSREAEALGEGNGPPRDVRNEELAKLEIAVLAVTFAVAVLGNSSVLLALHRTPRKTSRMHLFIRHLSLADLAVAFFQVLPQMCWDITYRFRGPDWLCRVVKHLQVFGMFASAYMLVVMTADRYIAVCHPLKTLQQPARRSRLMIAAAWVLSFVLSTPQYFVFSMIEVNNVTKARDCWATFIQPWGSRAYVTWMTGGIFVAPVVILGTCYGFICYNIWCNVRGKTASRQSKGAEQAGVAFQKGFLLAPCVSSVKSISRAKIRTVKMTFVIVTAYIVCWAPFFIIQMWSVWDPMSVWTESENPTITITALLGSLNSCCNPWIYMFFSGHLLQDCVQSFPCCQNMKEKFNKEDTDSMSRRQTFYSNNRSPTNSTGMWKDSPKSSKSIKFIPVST

With `COc1cc(C(=O)N2Cc3ccc(C(=O)N(C)CC(O)CN(C)C)n3Cc3ccccc32)ccc1-c1ccccc1C(F)(F)F` (stereo not drawn) [Example 22, N-[(3-Dimethylamino)-2-hydroxy-propyl]-10-{[2-methoxy-2′-trifluoromethyl-[1,1′-biphenyl]-4-yl]carbonyl}-N-methyl-10,11-dihydro-5H-pyrrolo[2,1-c][1,4]benzodiazepine-3-carboxamide], the melting point (usually the temperature of the solid-liquid transition) is 120 to 125 °C (dec.). Also, the IC50 (as a rule, the concentration that gives 50% inhibition) in data set [1] amounted to 227 nM.

Molecule `COc1cc2c(cc1OC)N(C(=O)c1ccc(-c3ccccc3C(F)(F)F)c(C)c1)Cc1ccc(C(=O)N(CCO)CCO)n1C2` [Example 19, N,N-Bis(2-Hydroxyethyl)-7,8-dimethoxy-10-{[2-methyl-2′-trifluoromethyl-[1,1′-biphenyl]-4-yl]carbonyl}-10,11-dihydro-5H-pyrrolo[2,1-c][1,4]benzodiazepine-3-carboxamide] showed a melting point of 130 to 132 °C. Also, the inhibition (as a rule, the percentage by which the read-out fell short of the control) at 0.1 µM in data set [1] came to 1%.

`COc1cc2c(cc1OC)N(C(=O)c1ccc(-c3ccccc3C(F)(F)F)c(C)c1)Cc1ccc(C(=O)N(C)CC(O)CO)n1C2` (stereo not drawn) [Example 18, N-(2,3-Dihydroxypropyl)-7,8-dimethoxy-N-methyl-10-{[2-methyl-2′-trifluoromethyl-[1,1′-biphenyl]-4-yl]carbonyl}-10,11-dihydro-5H-pyrrolo[2,1-c][1,4]benzodiazepine-3-carboxamide] yielded a melting point of 184 to 186 °C. This molecule returned an inhibition at 0.1 µM in data set [1] of 0%.

Molecule `COc1cc2c(cc1OC)N(C(=O)c1ccc(-c3ccccc3OC)c(C)c1)Cc1ccc(C(=O)N(C)C[C@H](O)[C@@H](O)[C@H](O)[C@H](O)CO)n1C2` [Example 37, 7,8-Dimethoxy-10-[(2′-methoxy-2-methyl-[1,1′-biphenyl]-4-yl)carbonyl]-10,11-dihydro-5H-pyrrolo[2,1-c][1,4]benzodiazepine-3-carboxylic acid methyl-[(2S, 3R, 4R, 5R)-2,3,4,5,6-pentahydroxy-hexyl)-amide] had a melting point of 110 to 120 °C. This molecule also returned an inhibition at 0.1 µM in data set [1] of 6%.

As for `COc1cc(C(=O)N2Cc3ccc(C(=O)N(C)CC(O)CO)n3Cc3ccccc32)ccc1-c1ccccc1C(F)(F)F` (stereo not drawn) [Example 21, N-(2,3-Dihydroxypropyl)-10-{[2-methoxy-2′-trifluoromethyl-[1,1′-biphenyl]-4-yl]carbonyl}-N-methyl-10,11-dihydro-5H-pyrrolo[2,1-c][1,4]benzodiazepine-3-carboxamide], the melting point was 119 to 123 °C. The 50% inhibitory concentration (IC50) in data set [1] amounted to 376 nM.

In turn, `Cc1cc(C(=O)N2Cc3ccc(C(=O)N(C)CC(O)CO)n3Cc3ccccc32)ccc1-c1ccccc1C(F)(F)F` (stereo not drawn) [Example 2, 10-[(2-Methyl-2′-trifluoromethyl-[1,1′-biphenyl]-4-yl)carbonyl]-10,11-dihydro-5H-pyrrolo[2,1-c][1,4]benzodiazepine-3-carboxylic acid (2,3-dihydroxy-propyl)-methyl-amide] gave a melting point of 169 to 172 °C. Also, the IC50 in data set [1] amounted to 790 nM.
